These results are taken from patent US10822415B2, “Methods for enhancing the potency of the immune checkpoint inhibitors” (INSERM (INSTITUT NATIONAL DE LA SANTÉ ET DE LA RECHERCHE …, priority 2016, dated 2020).

For one assay, the target named is S1PR1 (Mus musculus, UniProt O08530). As to conditions: mice; by inhibiting tumor vascularization; cited from earlier work.
Assay [1] has as its system Yumm murine melanoma cells. In words: SKI-I treatment with or without immune checkpoint antibody in mice with untransfected Yumm tumors. Type of assay: in vivo. As to conditions: mice harboring Yumm tumors, SKI-I combined with anti-PD-1. As to the method: Animal experiments were conducted in accordance with national and international policies, and our protocol was approved by the Regional Ethics Committee of Midi-Pyrenees. 3.105 of Yumm cell lines (Untransfected, shCtrl, shSK1 or shSK1(2)) were intradermally injected into the flank of 7-week-old C57BL/6 mice (Charles River, L'Arbresle, France). CD8-deficient C57BL/6 mice were a gift from Prof. J. van Meerwijk (INSERM U1043, Toulouse, France). Tumor volume was calculated using a caliper at the indicated days as described (Albinet, Bats et al. 2014). For combination experiments involving shCtrl or shSK1 Yumm cells, mice were challenged intradermally (i.d.) with 3.105 cells on day 0 on their right flank. Mice were then injected i.p. three times with anti-CTLA-4 (200 μg per mouse on D7 and 100 μg per mouse on D10 and D13), and/or with anti-PD-1 or isotype control antibody (200 μg per mouse on D5, D7 and D10). Tumor volumes were measured every 2-3 days. Anti-CTLA-4 (9H10), anti-PD-1 (RMP1-14) and isotype control (2A3) were purchased from BioXcell.
For SKI-I treatment, 5 days after Yumm or MC38 cell implantation, mice were treated or not with 50 mg/kg SKI-I (N′-[(2-hydroxynaphthalen-1-yl)methylidene]-3-(naphthalen-2-yl)-1H-pyrazole-5-carbohydrazide, Enamine) in 50 μl of a mixture of DMSO (10%), Cremophor (5%), Tween-80 (5%) and glucose (80%) (i.p.). […]

Each structure is given as a SMILES string.

Chain of S1PR1 (O08530 whole entry): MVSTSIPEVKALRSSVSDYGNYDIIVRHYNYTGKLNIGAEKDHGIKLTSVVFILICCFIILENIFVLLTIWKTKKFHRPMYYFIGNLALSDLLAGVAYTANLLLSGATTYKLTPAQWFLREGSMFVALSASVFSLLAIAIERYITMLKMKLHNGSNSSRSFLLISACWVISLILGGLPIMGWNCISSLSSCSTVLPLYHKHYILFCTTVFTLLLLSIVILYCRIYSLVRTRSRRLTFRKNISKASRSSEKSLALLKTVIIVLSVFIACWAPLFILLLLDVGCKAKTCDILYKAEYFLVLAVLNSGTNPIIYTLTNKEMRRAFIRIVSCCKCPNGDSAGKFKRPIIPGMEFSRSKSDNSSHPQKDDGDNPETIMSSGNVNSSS

Regarding `CCCCCCCCc1ccc(CCC(N)(CO)CO)cc1` [FTY720], at S1PR1, the melanoma progression result was “reduced melanoma progression”. With `O=C(N/N=C/c1c(O)ccc2ccccc12)c1cc(-c2ccc3ccccc3c2)n[nH]1` [SKI-I, N′-[(2-hydroxynaphthalen-1-yl)methylidene]-3-(naphthalen-2-yl)-1H-pyrazole-5-carbohydrazide], in assay [1], the “efficacy of anti-PD-1 (tumor growth)” value is “enhanced the efficacy of anti-PD-1”.
